Assay results from patent US20240239786A1, “COMPOSITIONS AND METHODS FOR THE TREATMENT AND PREVENTION OF CANCER” (Yale University, priority 2021, published 2024).

Tests used:
[1] = system: RNR; assay: dNTP measurement (HIV-1 RT-based dNTP assay) in PEO4 cells; assay type: cell-based; settings: 50 μM DB4 or 1 μM triapine, 24 hr
Experimental: FIG. 2, comprising FIG. 2A through FIG. 2F, depicts representative results of follow-up assays of in silico hit compounds in PEO1 and PEO4 cells. FIG. 2A depicts representative results of cytotoxicity assays on selected 25 in silico hit compounds in PEO1 and PEO4 cells. Cells were plated for 24 hr and then treated with 50 μM compounds for 72 hr. For a positive control, cells were treated with 1 μM triapine for 72 hr. The percentage of cell survival was determined by the MTS cytotoxicity assay. […] Cells were treated with 50 μM compounds or 1 μM triapine for 24 hr. During the last hour, cells were pulse-labeled with EdU, stained with the Click-iT EdU Alexa Fluor 488 Assay Kit, counterstained with 7-AAD, and subsequently analyzed by flow cytometry. EdU-positive cells were gated to determine the percentage of the S phase cell population. […] During the last hour, cells were pulse-labeled with EdU, stained with the Click-iT EdU Alexa Fluor 488 Assay Kit, counterstained with 7-AAD, and subsequently analyzed by flow cytometry. […] The percentages of DNA synthesis in cells treated with each of 10 compounds and triapine relative to the DMSO-treated control is calculated and shown. […] Cells were extracted with 65% methanol for determination of each of dNTPs expressed as pmole/10^6 cells. […] The percentage of cell survival was determined by the MTS cytotoxicity assay. […]

[2] = system: Rad51 foci; assay: Nuclear Rad51 foci by confocal microscopy in SKOV3 cells; assay type: cell-based; settings: for Rad51 foci, single agent: 30 μM DB4 or 25 μM olaparib
Excerpt: Cells were transfected with the ISceI-expressing plasmid and then treated various concentrations of DB4 for 48 hr. Cells were harvested, stained with 7-AAD, and analyzed by flow cytometry for GFP-positive cells indicative of HR repair activity. […] Cells were transfected with the ISceI-expressing plasmid and treated with various concentrations of DB4. Cells were harvested, stained with 7-AAD, and stained, and analyzed by flow cytometry for GFP-positive cells indicative of NHEJ activity. Data are means±SD (N=3). *, p<0.05; **, p<0.01, compared with the 0 μM control of ISceI-transected cells. FIG. 7C depicts representative results of confocal imaging of olaparib-induced nuclear Rad51 foci in SKOV3 cells treated DB4. Cells were treated with 30 μM DB4 for 1 hr and then treated with 25 μM olaparib or 6 hr. Cells were fixed, permeabilized, and stained with the anti-Rad51 antibody and the Alexa Fluor 488-conjugated secondary antibody. Nuclei were counterstained with DAPI. Immunofluorescence of Rad51 foci and nuclei were visualized by confocal microscopy. […] Cells were also scored for nuclei containing equal or more than 10 distinct Rad51 foci to determine the percentage of cells positive for Rad51 foci. Data are means±SD (N=10). p<0.001, compared between indicated treatment groups. […] Cells were pre-treated with 30 μM DB4 and then treated with 25 μM olaparib for 24 hr. Protein was assessed by western blot analysis for the levels of γH2AX, p-H1, cyclin A2, p-CDK1/2, and HSC70. Cropped gel images of protein bands are presented. Full-length gel images are shown in FIG. 15. p-H1, cyclin A2, p-CDK1/2, and HSC70 bands were from re-probing the same blot. The γH2AX band was from a duplicated blot. […] The band density of γH2AX indicative of DSBs was quantified by densitometry. […]
To interrogate whether DB4 inhibited PARP inhibitor-induced DSB repair, nuclear Rad51 foci were determined in SKOV3 cells. […]
SKOV3 cells were grown for 24 hr prior to drug treatment. […] Nuclei containing equal or more than 10 Rad51 foci were counted to determine % Rad51-positive cells.

For `C=CCn1c(SCc2cccc(Cl)c2)nnc1C1CCN(Cc2nc3ccccc3s2)CC1` [DB4, 2-[(4-{4-allyl-5-[(3-chlorobenzyl)thio]-4H-1,2,4-triazol-3-yl}-1-piperidinyl)methyl]-1,3-benzothiazole], the “levels of dNTPs” value [1] was “significant decreases in the levels of dATP, dGTP, and dTTP”, the “olaparib-induced Rad51 foci” value ([2]; 30 μM DB4 1 hr then 25 μM olaparib) was “significantly attenuated” and the “Rad51 foci, single agent” value [2] was “had no effects on Rad51 foci”.
For `O=C(c1cc(Cc2n[nH]c(=O)c3ccccc23)ccc1F)N1CCN(C(=O)C2CC2)CC1` [olaparib, reference compound], the “Rad51 foci, single agent” value [2] was “induced a pronounced increase in Rad51 foci”.
With `NC(=S)NN=Cc1ncccc1N` [triapine, 3-aminopyridine-2-carboxaldehyde-thiosemicarbazone, reference compound] the “levels of dNTPs” value [1] was “significant and pronounced decreases in the levels of dATP and dGTP while causing a marked increase in dCTP and somewhat elevated dTTP”.
